Measured values published in patent US20210046124A1, “HUMAN FUNCTIONAL CORNEAL ENDOTHELIAL CELL AND APPLICATION THEREOF” (KYOTO PREFECTURAL PUBLIC UNIVERSITY CORPORATION, priority 2016, published 2021).
Several values for one entry are separate records, joined by “and”; a condition that tells them apart may be missing. Equal values may be shown once. Entries after “also recorded” stand apart in the source; their conditions may differ. Where a name gives a salt, the structure may show the parent alone.

Assays:
Assay type in all cases: cell-based, human
cultured HCECs [1] = assay: Flow cytometry (FACS) of surface CD markers CD44, CD166, CD24, CD26, CD105 of cultured HCECs; E-ratio; conditions: for effect on the E-ratio: presence of the agent during culture
Excerpt: FIG. 68 is a diagram showing the method to estimate the content of effector (E-ratio) in a cultured cell population by FACS analysis. The gate is set as followings in measurements using PE-Cy7-labeled anti-human CD44 antibodies (BD Biosciences) and setting the Area Scaling Factor of Blue laser of FACS Canto II to 0.75 and voltage of PE-Cy7 to 495. First, fractions A, B, C, and D are set in the dot plot (top row left) where the X axis is CD24 and the Y axis is CD166. At this time, fraction A is CD24 negative and CD166 positive, fraction B is CD24 positive and CD166 positive, fraction C is CD24 negative and CD166 negative, and fraction D is CD24 positive and CD166 negative. The proportion of fraction B when target cells for analysis are 100% is considered the content of non-intended cell C [CD24 positive cell]. […] Further, a separate dot plot where the X axis is CD44 and the Y axis is CD26 is created and fractions a′, b′, c′, and d′ are set as in the diagram on the top row right side. The proportion of fraction B when the target cells of analysis is 100% is the non-intended cell B [CD26 positive cell] content.
Method of calculating the E-ratio: Typically, fluorescence intensities differ depending on the type of fluorescence of a label or equipment setting. In a measurement under the following condition: PE-Cy7-labeled anti-human CD44 antibody (BD Biosciences) is used and Area Scaling Factor of Blue laser of FACS Canto II is set to 0.75 and the voltage of PE-Cy 7 is set to 495, gates are set as follows: First, fractions A, B, C, and D are set in a dot plot (FIG. 68, top row left side) with X axis as CD24 and Y axis as CD166. At this time, fraction A is CD24 negative and CD166 positive, fraction B is CD24 positive and CD166 positive, fraction C is CD24 negative and CD166 negative, and fraction D is CD24 positive and CD166 negative. The proportion of fraction B, when target cells for analysis is 100%, is considered the content of non-intended cell C [CD24 positive cell]. […] Further, a separate dot plot where the X axis is CD44 and the Y axis is CD26 is created and fractions a′, b′, c′, and d′ are set as in the diagram on the top row right side of FIG. 68. The proportion of fraction B, when the target cell of analysis is 100%, is the non-intended cell B [CD26 positive cell] content (see FIG. 68).
HCECs were collected from the culture dish by TrypLE Select treatment as described above and suspended at a concentration of 4×10^6 cells/mL in FACS buffer (PBS containing 1% BSA and 0.05% NaN3). An equal volume of antibody solution was added and incubated for 2 hours at 4.degrees. C. The antibody solutions comprised the following: FITC-conjugated anti-human CD26 mAb, PE-conjugated anti-human CD166 mAb, PerCP-Cy5.5 conjugated anti-human CD24 mAb, PE-Cy7-conjugated anti-human CD44 (all from BD Biosciences), and APC-conjugated anti-human CD105 (eBioscience, San Diego, Calif., USA). After washing with FACS buffer, the HCECs were analyzed with FACS Canto II (BD Biosciences).

cHCECs = assay: Phase contrast microscopy: morphology, cell area distribution, cultured cell density
Excerpt: Phase contrast microscope images were taken by an inverted microscope system (CKX41, Olympus, Tokyo, Japan). For the cell area distribution analysis, the cHCECs were washed with PBS (−) three times and the phase contrast images were acquired by a BZ X-700 Microscope system (Keyence, Osaka, Japan). The cell area distributions were quantified by BZ-H3C Hybrid cell count software (Keyence).
Phase contrast images ware taken by an inverted microscope system (CKX41, Olympus, Tokyo, Japan). For the cell area distribution analysis, the cHCECs were washed with PBS (−) three times and phase contrast images were acquired by a BZ X700 Microscope system (Keyence, Osaka, Japan). The area distributions were quantified by BZ-H3C Hybrid cell count software (Keyence).

HCECs = assay: Trichostatin A (TSA) treatment of HCECs; conditions: medium supplemented with 0.5 .micro.M Trichostatin A
Procedure: HCECs with treated with Trichostatin A as follows. The Descemet's membranes with the corneal endothelial cells were stripped from donor corneas and digested at 37.degrees. C. with 1 mg/mL collagenase A (Roche Applied Science, Penzberg, Germany) for 2 hours. The HCECs obtained from a single donor cornea were seeded in one well of a Type I collagen-coated 6-well cell culture plate (Corning Inc., Corning, N.Y., USA). The Trichostatin A-containing medium was prepared with Opti-MEM-I (Life Technologies Corp., Carlsbad, Calif., USA), 8% fetal bovine serum (FBS), 5 ng/mL epidermal growth factor (EGF; Life Technologies), 20 .micro.g/mL ascorbic acid (Sigma-Aldrich Corp.), 200 mg/L calcium chloride (Sigma-Aldrich Corp., St. Louis, Mo., USA), 0.08% chondroitin sulfate (Wako Pure Chemical Industries, Ltd., Osaka, Japan), 50 .micro.g/mL of gentamicin, and 0.5 .micro.M of Trichostatin A. The HCECs were cultured using the Trichostatin A-containing medium at 37.degrees. C. in a humidified atmosphere containing 5% CO2. The culture medium was changed twice a week. The HCECs were subcultured at ratios of 1:3 using 10× TrypLE Select (Life Technologies) for 12 minutes at 37.degrees. C. when they reached confluence. The cells were cultured for 30 days. The HCECs from the second passage were used for observation with a fluorescence microscope.

cultured HCECs [2] = assay: Centrifugation cell attachment assay: coated Descemet's membrane components and cell suspension vehicles; conditions: for minimum concentration necessary for the observed cell binding: coating concentration; for binding / distribution of cultured HCECs in coated wells: U-bottomed 96-well plates coated with the component, 200×g for 2 minutes, Opti-MEM
Procedure: Cell attachment to laminins, […], proteoglycans and glycoprotein was tested by the centrifugation cell attachment assay described previously (Friedlander et al., 1998. J. Cell Biol. 107: p 2329) with some modifications. Laminin-521, -511, -411, and -332 were purchased from Veritas (Tokyo, Japan). Perlecan, Agrin, Nidogen-1, TSP-1 and Fibulin 5 were purchased from R&D Systems (Minneapolis, Minn.). Type IV collagen was purchased from BD Biosciences (San Jose, Calif., USA).
Each well of a U-shaped 96-well Maxisorp plate (Nunc) was coated with 40 .micro.l of laminin, collagen, proteoglycan or glycoprotein solution overnight at 4 degrees Celsius. The wells were washed three times with PBS (−) and blocked with 1% BSA in 0.1 M NaHCO3 (pH 8.0) for 1 hour at room temperature. The cultured HCECs were suspended in Opti-MEM, Opeguard-MA (Senju Pharmaceutical, Osaka, Japan) or BSS-Plus (Alcon Laboratories, Fort Worth, Tex., USA) at a concentration of 1×10^5 cells/mL, and 0.1 mL of the cell suspension was added to each well and incubated for 10 minutes. The plate was then centrifuged at 200×g for 2 minutes. The bright-field Z stack images were captured by a BZ-9000 microscope (Keyence, Osaka, Japan) at 2× objective magnification and omnifocal images were created from these images using BZ-II Analyzer software. In accordance with the description by Friedlander et al (Friedlander et al., 1998. J. Cell Biol. 107: p 2329), the cells were centrifuged into a pellet at the bottom of the well on non-adhesive substrates. As the adhesiveness of the substrate increased, more cells bound to the substrates along the wall of the well. Bond to the substrate is detected in a circular area with a measurable diameter at the bottom or the well. On strongly adhesive substrates, cells were distributed more or less uniformly on the well (Grumet M, Flaccus A, and Margolis R U. J. Cell Biol. 1993; 120:815-824).
As a method for assessing the attachment ability of HCECs, this Example performed a centrifugation cell attachment assay [Friedlander et al., 1998. J. Cell Biol. 107: p 2329] with some modification (FIG. 36). The cultured HCECs were detached from culture dishes as described in (Materials and Methods) and cell suspension was prepared at a concentration of 1×10^5 cells/ml. 100 .micro.l of the cell suspension was added to each well of the U-bottomed 96-well plates coated with laminin-511, laminin-411, Type IV collagen or other components of Descemet's membrane listed in Table 6. The plate was incubated for 10 minutes at room temperature and then centrifuged at 200×g for 2 minutes. The attached cells were assessed under a BZ-9000 microscope system as described in (Materials and Methods).

[3] = addition of Y-27632 during the culture for 47 days

C[C@@H](N)[C@H]1CC[C@H](C(=O)Nc2ccncc2)CC1 [Lot Y-27632, (R)-(+)-trans-(4-pyridyl)-4-(1-aminoethyl)-cyclohexanecarboxamide dihydrochloride monohydrate]
E-ratios (cultured HCECs [1]; Y-27632 added every three days throughout the entire culture period, TGF-beta signaling not inhibited, seeding density higher than 400 cells/mm^2): ≥ 90%
improvement (E-ratio, increase in the proportion of intermediately differentiated corneal endothelial cells) (cultured HCECs [1]; about 1 .micro.M): very little improvement
improvement (E-ratio, increase in the proportion of intermediately differentiated corneal endothelial cells) (cultured HCECs [1]; about 5 .micro.M): little
improvement (E-ratio, increase in the proportion of intermediately differentiated corneal endothelial cells) (cultured HCECs [1]; about 10 .micro.M or more): More of an effect
E-Ratio (cultured HCECs [1]; addition of Y-27632 throughout 35 days of culture, 6th passage): 52.3%
effect on the E-ratio (cultured HCECs [1]): further improved the E-ratio
average cell area (cHCECs; [3]): 216 .micro.m^2
cultured cell density (cHCECs; [3]): 2582 cells/mm^2

C[S+]([O-])c1ccc(-c2nc(-c3ccc(F)cc3)c(-c3ccncc3)[nH]2)cc1 (centres unmarked) [SB203580, 4-(4-fluorophenyl)-2-(4-methylsulfinylphenyl)-5-(4-pyridyl)-1H-imidazole]
senescent form of cHCEC cultures (cHCECs; inhibitor added to the entire culture, cultures a5, a1, a2): did not have any senescent form at first glance

CC(/C=C/C(=O)NO)=C\[C@@H](C)C(=O)c1ccc(N(C)C)cc1 [Trichostatin A]
effect on the E-ratio (cultured HCECs [1]): improved the E-ratio
differentiation into mature cHCECs (HCECs): can be promoted to differentiate into mature cHCECs

Agrin: purchased from R&D Systems, Descemet's membrane component
minimum concentration necessary for the observed cell binding (cultured HCECs [2]): 400 nM

Perlecan: purchased from R&D Systems, Descemet's membrane component
minimum concentration necessary for the observed cell binding (cultured HCECs [2]): 400 nM

TSP-1: purchased from R&D Systems, Descemet's membrane component
minimum concentration necessary for the observed cell binding (cultured HCECs [2]): 400 nM

laminin-332: laminin purchased from Veritas, coating protein
binding / distribution of cultured HCECs in coated wells (cultured HCECs [2]): formed a circular pellet

laminin-411: laminin purchased from Veritas, coating protein
binding / distribution of cultured HCECs in coated wells (cultured HCECs [2]): formed a circular pellet
minimum concentration necessary for the observed cell binding (cultured HCECs [2]): 1.25 nM and 2.85 .micro.g/mL

laminin-511: laminin purchased from Veritas, coating protein
binding / distribution of cultured HCECs in coated wells (cultured HCECs [2]): uniformly distributed; also recorded: concentration dependent manner
minimum concentration necessary for the observed cell binding (cultured HCECs [2]): 4 pM and 3 ng/mL

laminin-521: laminin purchased from Veritas, coating protein
binding / distribution of cultured HCECs in coated wells (cultured HCECs [2]): uniformly distributed; also recorded: concentration dependent manner
